Experimental data published in US11130778B2, “CD73 inhibitors” (ORIC Pharmaceuticals, Inc., priority 2019, dated 2021).

Each compound was assayed against T1, CD73 (Homo sapiens, UniProt P21589) (assay: Biochemical assay of CD73 inhibition (Malachite Green)). Settings: CD73 0.3208 nM, AMP 15 μM, Tris-HCl pH 7.4, Malachite Green absorbance readout; read-out: CD73_Biochem.
T1 sequence (P21589 27-549): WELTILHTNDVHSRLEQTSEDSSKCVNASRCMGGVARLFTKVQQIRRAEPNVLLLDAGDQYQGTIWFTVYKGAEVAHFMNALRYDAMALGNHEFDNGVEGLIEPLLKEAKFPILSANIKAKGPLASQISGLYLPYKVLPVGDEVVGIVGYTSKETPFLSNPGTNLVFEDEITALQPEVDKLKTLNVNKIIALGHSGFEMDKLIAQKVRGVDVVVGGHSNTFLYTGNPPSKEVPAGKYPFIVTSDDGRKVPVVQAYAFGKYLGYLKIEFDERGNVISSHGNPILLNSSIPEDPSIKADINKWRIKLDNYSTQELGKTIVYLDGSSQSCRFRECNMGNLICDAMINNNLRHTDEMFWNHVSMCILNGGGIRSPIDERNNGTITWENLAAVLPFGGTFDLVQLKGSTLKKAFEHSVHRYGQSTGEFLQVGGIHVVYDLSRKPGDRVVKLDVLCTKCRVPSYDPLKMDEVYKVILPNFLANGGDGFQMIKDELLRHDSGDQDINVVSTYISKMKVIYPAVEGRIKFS
In short: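 CD73 (0.3208 nM) preincubated with compound 15 min at RT in 25 mM Tris-HCl pH 7.4, 5 mM MgCl2, 0.01% Brij-35, 0.01% BSA, then AMP (15 μM) added for 10 min at RT. Released phosphate detected by Malachite Green absorbance. IC50 from 10-point ½-log titrations starting at 100 μM, in duplicate.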
`O=P(O)(O)[C@@](CO)(COCc1nn[nH]n1)OC[C@H]1O[C@@H](n2ncc3c(NC4CCC4)nc(Cl)nc32)[C@H](O)[C@@H]1O` [Example 55, ((S)-1-((2H-tetrazol-5-yl)methoxy)-2-(((2R,3S,4R,5R)-5-(6-chloro-4-(cyclobutylamino)-1H-pyrazolo[3,4-d]pyrimidin-1-yl)-3,4-dihydroxytetrahydrofuran-2-yl)methoxy)-3-hydroxypropan-2-yl)phosphonic acid] was tested, and the IC50 was at most 10 nM. Work on `COCC(COCc1nn[nH]n1)(OC[C@H]1O[C@@H](n2ncc3c(N[C@@H]4CCc5ccccc54)nc(Cl)nc32)[C@H](O)[C@@H]1O)P(=O)(O)O` (stereo partly drawn) [Example 56, (1-((2H-tetrazol-5-yl)methoxy)-2-(((2R,3S,4R,5R)-5-(6-chloro-4-(((R)-2,3-dihydro-1H-inden-1-yl)amino)-1H-pyrazolo[3,4-d]pyrimidin-1-yl)-3,4-dihydroxytetrahydrofuran-2-yl)methoxy)-3-methoxypropan-2-yl)phosphonic acid] yielded an IC50 of at most 10 nM. `CC(CS(C)(=O)=O)(OC[C@H]1O[C@@H](n2ncc3c(NC4CCCC4)nc(Cl)nc32)[C@H](O)[C@@H]1O)P(=O)(O)O` (stereo partly drawn) [Example 57, (2-(((2R,3S,4R,5R)-5-(6-chloro-4-(cyclopentylamino)-1H-pyrazolo[3,4-d]pyrimidin-1-yl)-3,4-dihydroxytetrahydrofuran-2-yl)methoxy)-1-(methylsulfonyl)propan-2-yl)phosphonic acid] gave an IC50 of 10 to 100 nM. Work on `O=P(O)(O)[C@@](CO)(COCc1nn[nH]n1)OC[C@H]1O[C@@H](n2ncc3c(NCC4CCC4)nc(Cl)nc32)[C@H](O)[C@@H]1O` [Example 58, ((S)-1-((2H-tetrazol-5-yl)methoxy)-2-(((2R,3S,4R,5R)-5-(6-chloro-4-((cyclobutylmethyl)amino)-1H-pyrazolo[3,4-d]pyrimidin-1-yl)-3,4-dihydroxytetrahydrofuran-2-yl)methoxy)-3-hydroxypropan-2-yl)phosphonic acid] yielded an IC50 of at most 10 nM. `[2H]C([2H])([2H])OC[C@](COCc1nn[nH]n1)(OC[C@H]1O[C@@H](n2ncc3c(NC4CCCC4)nc(Cl)nc32)[C@H](O)[C@@H]1O)P(=O)(O)O` [Example 59, ((S)-1-((2H-tetrazol-5-yl)methoxy)-2-(((2R,3S,4R,5R)-5-(6-chloro-4-(cyclopentylamino)-1H-pyrazolo[3,4-d]pyrimidin-1-yl)-3,4-dihydroxytetrahydrofuran-2-yl)methoxy)-3-(methoxy-d3)propan-2-yl)phosphonic acid] gave an IC50 of at most 10 nM. `O=P(O)(O)C(CO)(COCc1nn[nH]n1)OC[C@H]1O[C@@H](n2ncc3c(N[C@@H]4CCc5ccccc54)nc(Cl)nc32)[C@H](O)[C@@H]1O` (stereo partly drawn) [Example 60, (1-((2H-tetrazol-5-yl)methoxy)-2-(((2R,3S,4R,5R)-5-(6-chloro-4-(((R)-2,3-dihydro-1H-inden-1-yl)amino)-1H-pyrazolo[3,4-d]pyrimidin-1-yl)-3,4-dihydroxytetrahydrofuran-2-yl)methoxy)-3-hydroxypropan-2-yl)phosphonic acid] was tested, and the IC50 was at most 10 nM.
